Reference: the supplement of paper PMC10307832

Columns and labels:
Assay in all cases: relative viability (nuclei count vs DMSO), 5 days (fraction); higher = more cells survive
A549 = tested on: A549
In short: (§1)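 Each reported value is a median over duplicate plates. It expresses relative viability: treated-well nuclei count divided by vehicle-well nuclei count. Lung cancer cell lines in 1536-well plates were dosed by pin tool a day after seeding, alone with one drug or with a fixed anchor-drug dose plus five library-drug doses (not always all listed) in √10 steps, and nuclei were counted after 5 days.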

HCC-366 = tested on: HCC-366
In short: as §1

NCI-H3122 = tested on: NCI-H3122
In short: as §1

NCI-H2085 = tested on: NCI-H2085
In short: as §1

NCI-H1703 = tested on: NCI-H1703
In short: as §1

NCI-H1299 = tested on: NCI-H1299
In short: as §1

Calu-6 = tested on: Calu-6
In short: as §1

LOU-NH91 = tested on: LOU-NH91
In short: as §1

NCI-H1437 = tested on: NCI-H1437
In short: as §1

EBC-1 = tested on: EBC-1
In short: as §1

IA-LM = tested on: IA-LM
In short: as §1

HCC-44 = tested on: HCC-44
In short: as §1

LXF-289 = tested on: LXF-289
In short: as §1

Nc1ccn([C@@H]2O[C@H](CO)[C@@H](O)[C@@H]2O)c(=O)n1 [Cytarabine] + CS(=O)(=O)CCNCc1ccc(-c2ccc3ncnc(Nc4ccc(OCc5cccc(F)c5)c(Cl)c4)c3c2)o1 [Lapatinib] (partner 2 µM)
relative viability (A549; first compound 0.005 µM): 0.835
relative viability (A549; first compound 0.01581 µM): 0.648
relative viability (A549; first compound 0.05 µM): 0.569
relative viability (A549; first compound 0.1581 µM): 0.148
relative viability (A549; first compound 0.5 µM): 0.0593
relative viability (HCC-366; first compound 0.005 µM): 1.16
relative viability (HCC-366; first compound 0.01581 µM): 0.85
relative viability (HCC-366; first compound 0.05 µM): 1.05
relative viability (HCC-366; first compound 0.1581 µM): 0.0753
relative viability (HCC-366; first compound 0.5 µM): 0.0431
relative viability (NCI-H3122; first compound 0.005 µM): 1.12
relative viability (NCI-H3122; first compound 0.01581 µM): 0.912
relative viability (NCI-H3122; first compound 0.05 µM): 0.91
relative viability (NCI-H3122; first compound 0.1581 µM): 0.676
relative viability (NCI-H3122; first compound 0.5 µM): 0.551
relative viability (NCI-H2085; first compound 0.005 µM): 0.735
relative viability (NCI-H2085; first compound 0.01581 µM): 0.725
relative viability (NCI-H2085; first compound 0.05 µM): 0.666
relative viability (NCI-H2085; first compound 0.1581 µM): 0.622
relative viability (NCI-H2085; first compound 0.5 µM): 0.374
relative viability (NCI-H1703; first compound 0.005 µM): 0.776
relative viability (NCI-H1703; first compound 0.01581 µM): 0.388
relative viability (NCI-H1703; first compound 0.05 µM): 0.286
relative viability (NCI-H1703; first compound 0.1581 µM): 0.16
relative viability (NCI-H1703; first compound 0.5 µM): 0.194
relative viability (NCI-H1299; first compound 0.005 µM): 0.976
relative viability (NCI-H1299; first compound 0.01581 µM): 0.979
relative viability (NCI-H1299; first compound 0.05 µM): 1.07
relative viability (NCI-H1299; first compound 0.1581 µM): 0.987
relative viability (NCI-H1299; first compound 0.5 µM): 0.95
relative viability (Calu-6; first compound 0.005 µM): 0.903
relative viability (Calu-6; first compound 0.01581 µM): 0.856
relative viability (Calu-6; first compound 0.05 µM): 0.921
relative viability (Calu-6; first compound 0.1581 µM): 0.512
relative viability (Calu-6; first compound 0.5 µM): 0.341
relative viability (LOU-NH91; first compound 0.005 µM): 0.735
relative viability (LOU-NH91; first compound 0.01581 µM): 0.729
relative viability (LOU-NH91; first compound 0.05 µM): 0.588
relative viability (LOU-NH91; first compound 0.1581 µM): 0.669
relative viability (LOU-NH91; first compound 0.5 µM): 0.554
relative viability (NCI-H1437; first compound 0.005 µM): 0.548
relative viability (NCI-H1437; first compound 0.01581 µM): 0.453
relative viability (NCI-H1437; first compound 0.05 µM): 0.378
relative viability (NCI-H1437; first compound 0.1581 µM): 0.177
relative viability (NCI-H1437; first compound 0.5 µM): 0.147
relative viability (EBC-1; first compound 0.01581 µM): 0.22
relative viability (EBC-1; first compound 0.05 µM): 0.185
relative viability (EBC-1; first compound 0.1581 µM): 0.152
relative viability (EBC-1; first compound 0.5 µM): 0.208
relative viability (IA-LM; first compound 0.005 µM): 0.85
relative viability (IA-LM; first compound 0.01581 µM): 0.729
relative viability (IA-LM; first compound 0.05 µM): 0.588
relative viability (IA-LM; first compound 0.1581 µM): 0.297
relative viability (IA-LM; first compound 0.5 µM): 0.175
relative viability (HCC-44; first compound 0.005 µM): 0.93
relative viability (HCC-44; first compound 0.01581 µM): 0.935
relative viability (HCC-44; first compound 0.05 µM): 0.984
relative viability (HCC-44; first compound 0.1581 µM): 0.532
relative viability (HCC-44; first compound 0.5 µM): 0.431
relative viability (LXF-289; first compound 0.005 µM): 0.806
relative viability (LXF-289; first compound 0.01581 µM): 0.851
relative viability (LXF-289; first compound 0.05 µM): 0.809
relative viability (LXF-289; first compound 0.1581 µM): 0.429
relative viability (LXF-289; first compound 0.5 µM): 0.339

Nc1ccn([C@@H]2O[C@H](CO)[C@@H](O)[C@@H]2O)c(=O)n1 [Cytarabine] + CS(=O)(=O)N1CCN(Cc2cc3nc(-c4cccc5[nH]ncc45)nc(N4CCOCC4)c3s2)CC1 [Pictilisib] (partner 1 µM)
relative viability (A549; first compound 0.005 µM): 0.506
relative viability (A549; first compound 0.05 µM): 0.539
relative viability (A549; first compound 0.1581 µM): 0.0667
relative viability (A549; first compound 0.5 µM): 0.039
relative viability (HCC-366; first compound 0.005 µM): 0.134
relative viability (HCC-366; first compound 0.01581 µM): 0.129
relative viability (HCC-366; first compound 0.05 µM): 0.0867
relative viability (HCC-366; first compound 0.1581 µM): 0.0754
relative viability (HCC-366; first compound 0.5 µM): 0.0688
relative viability (NCI-H3122; first compound 0.005 µM): 0.629
relative viability (NCI-H3122; first compound 0.01581 µM): 0.494
relative viability (NCI-H3122; first compound 0.05 µM): 0.61
relative viability (NCI-H3122; first compound 0.1581 µM): 0.329
relative viability (NCI-H3122; first compound 0.5 µM): 0.204
relative viability (NCI-H2085; first compound 0.005 µM): 0.422
relative viability (NCI-H2085; first compound 0.01581 µM): 0.433
relative viability (NCI-H2085; first compound 0.05 µM): 0.401
relative viability (NCI-H2085; first compound 0.1581 µM): 0.367
relative viability (NCI-H2085; first compound 0.5 µM): 0.281
relative viability (NCI-H1703; first compound 0.005 µM): 0.263
relative viability (NCI-H1703; first compound 0.01581 µM): 0.182
relative viability (NCI-H1703; first compound 0.05 µM): 0.194
relative viability (NCI-H1703; first compound 0.1581 µM): 0.149
relative viability (NCI-H1703; first compound 0.5 µM): 0.158
relative viability (NCI-H1299; first compound 0.005 µM): 0.819
relative viability (NCI-H1299; first compound 0.01581 µM): 0.839
relative viability (NCI-H1299; first compound 0.05 µM): 0.959
relative viability (NCI-H1299; first compound 0.1581 µM): 0.656
relative viability (NCI-H1299; first compound 0.5 µM): 0.645
relative viability (Calu-6; first compound 0.005 µM): 0.741
relative viability (Calu-6; first compound 0.01581 µM): 0.618
relative viability (Calu-6; first compound 0.05 µM): 0.775
relative viability (Calu-6; first compound 0.1581 µM): 0.371
relative viability (Calu-6; first compound 0.5 µM): 0.203
relative viability (LOU-NH91; first compound 0.005 µM): 0.525
relative viability (LOU-NH91; first compound 0.01581 µM): 0.56
relative viability (LOU-NH91; first compound 0.05 µM): 0.489
relative viability (LOU-NH91; first compound 0.1581 µM): 0.385
relative viability (LOU-NH91; first compound 0.5 µM): 0.369
relative viability (NCI-H1437; first compound 0.005 µM): 0.381
relative viability (NCI-H1437; first compound 0.01581 µM): 0.245
relative viability (NCI-H1437; first compound 0.05 µM): 0.252
relative viability (NCI-H1437; first compound 0.1581 µM): 0.112
relative viability (NCI-H1437; first compound 0.5 µM): 0.11
relative viability (EBC-1; first compound 0.005 µM): 0.37
relative viability (EBC-1; first compound 0.01581 µM): 0.29
relative viability (EBC-1; first compound 0.05 µM): 0.239
relative viability (EBC-1; first compound 0.1581 µM): 0.215
relative viability (EBC-1; first compound 0.5 µM): 0.193
relative viability (IA-LM; first compound 0.005 µM): 0.296
relative viability (IA-LM; first compound 0.01581 µM): 0.336
relative viability (IA-LM; first compound 0.05 µM): 0.338
relative viability (IA-LM; first compound 0.1581 µM): 0.154
relative viability (IA-LM; first compound 0.5 µM): 0.0939
relative viability (HCC-44; first compound 0.005 µM): 0.492
relative viability (HCC-44; first compound 0.01581 µM): 0.599
relative viability (HCC-44; first compound 0.05 µM): 0.5
relative viability (HCC-44; first compound 0.1581 µM): 0.349
relative viability (HCC-44; first compound 0.5 µM): 0.385
relative viability (LXF-289; first compound 0.005 µM): 0.716
relative viability (LXF-289; first compound 0.01581 µM): 0.752
relative viability (LXF-289; first compound 0.05 µM): 0.679
relative viability (LXF-289; first compound 0.1581 µM): 0.288
relative viability (LXF-289; first compound 0.5 µM): 0.304
